Target: T1, Recombinant human His-tagged Trim24-PHD-bromodomain (Homo sapiens, UniProt O15164)
T1 construct: Recombinant human His-tagged Trim24-PHD-bromodomain (produced in-house); made in house
T1 sequence (O15164 824-1006 limits assumed): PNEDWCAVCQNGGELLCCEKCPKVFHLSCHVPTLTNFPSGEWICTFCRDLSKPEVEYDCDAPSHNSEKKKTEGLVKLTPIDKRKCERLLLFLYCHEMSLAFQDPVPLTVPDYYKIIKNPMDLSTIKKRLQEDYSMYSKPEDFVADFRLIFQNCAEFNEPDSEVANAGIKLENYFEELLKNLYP
Assay: Trim24 AlphaScreen Assay
Type: binding
Conditions: 5 nM Trim24 protein, 15 nM biotinylated H3K23ac (1-33aa) peptide
Procedure, shortened: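 His-tagged Trim24-PHD-bromodomain, biotinylated H3K23ac (1-33aa) peptide and compound incubated 1 h at room temperature in 50 mM Hepes pH 7.5, 100 mM NaCl, 0.12 mM Triton X-100.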

Row | Compound | IC50
1 | Cc1nc(S(=O)(=O)Nc2cc3c(cc2Oc2cccc(OC(C)C)c2)n(C)c(=O)n3C)cn1C [Example 54, N-(6-(3-isopropoxyphenoxy)-1,3-dimethyl-2-oxo-2,3-dihydro-1H-benzo[d]imidazol-5-yl)-1,2-dimethyl-1H-imidazole-4-sulfonamide] | 100 to 1000 nM
2 | Cn1c(=O)n(C)c2cc(Oc3cccc(OCc4ccccc4)c3)c(NS(=O)(=O)c3ccccc3Br)cc21 [Example 37, N-(6-(3-(benzyloxy)phenoxy)-1,3-dimethyl-2-oxo-2,3-dihydro-1H-benzo[d]imidazol-5-yl)-2-bromobenzenesulfonamide] | > 1000 nM
3 | COc1ccc(S(=O)(=O)Nc2cc3c(cc2Oc2cccc(OCCCCCCN)c2)n(C)c(=O)n3C)cc1OC [Example 145, N-(6-(3-((6-aminohexyl)oxy)phenoxy)-1,3-dimethyl-2-oxo-2,3-dihydro-1H-benzo[d]imidazol-5-yl)-3,4-dimethoxybenzenesulfonamide] | 10 to 100 nM
4 | CCCOc1cc(OCCCCN2CCOCC2)cc(Oc2cc3c(cc2NS(=O)(=O)c2ccc(OC)c(OC)c2)n(C)c(=O)n3C)c1 [Example 246, N-(1,3-dimethyl-6-(3-(4-morpholinobutoxy)-5-propoxyphenoxy)-2-oxo-2,3-dihydro-1H-benzo[d]imidazol-5-yl)-3,4-dimethoxybenzenesulfonamide 2,2,2-trifluoroacetate] | 10 to 100 nM
5 | Cn1cc(S(=O)(=O)Nc2cc3c(cc2Oc2cccc(OCc4ccccc4)c2)n(C)c(=O)n3C)cn1 [Example 25, N-(6-(3-(benzyloxy)phenoxy)-1,3-dimethyl-2-oxo-2,3-dihydro-1H-benzo[d]imidazol-5-yl)-1-methyl-1H-pyrazole-4-sulfonamide] | 100 to 1000 nM
6 | CCC(C)COc1cccc(Oc2cc3c(cc2NS(=O)(=O)c2cn(C)c(C)n2)n(C)c(=O)n3C)c1 (centres unmarked) [Example 62, N-(1,3-dimethyl-6-(3-(2-methylbutoxy)phenoxy)-2-oxo-2,3-dihydro-1H-benzo[d]imidazol-5-yl)-1,2-dimethyl-1H-imidazole-4-sulfonamide] | 100 to 1000 nM
7 | CCn1nccc1S(=O)(=O)Nc1cc2c(cc1Oc1cccc(OCc3ccccc3)c1)n(C)c(=O)n2C [Example 42, N-(6-(3-(benzyloxy)phenoxy)-1,3-dimethyl-2-oxo-2,3-dihydro-1H-benzo[d]imidazol-5-yl)-1-ethyl-1H-pyrazole-5-sulfonamide] | 100 to 1000 nM
8 | CCCOc1cc(OCCCOC)cc(Oc2cc3c(cc2NS(=O)(=O)c2ccc(OC(F)F)cc2)n(C)c(=O)n3C)c1 [Example 167, 4-(difluoromethoxy)-N-(6-(3-(3-methoxypropoxy)-5-propoxyphenoxy)-1,3-dimethyl-2-oxo-2,3-dihydro-1H-benzo[d]imidazol-5-yl)benzenesulfonamide] | 100 to 1000 nM
9 | Cc1ccsc1S(=O)(=O)Nc1cc2c(cc1Oc1cccc(OCc3ccccc3)c1)n(C)c(=O)n2C [Example 24, N-(6-(3-(benzyloxy)phenoxy)-1,3-dimethyl-2-oxo-2,3-dihydro-1H-benzo[d]imidazol-5-yl)-3-methylthiophene-2-sulfonamide] | > 1000 nM
10 | Cn1cnc(S(=O)(=O)Nc2cc3c(cc2Oc2cccc(OCC(C)(O)CNCCN)c2)n(C)c(=O)n3C)c1 (centres unmarked) [Example 237, N-[6-(3-{3-[(2-aminoethyl)amino]-2-hydroxy-2-methylpropoxy}phenoxy)-1,3-dimethyl-2-oxo-2,3-dihydro-1H-1,3-benzodiazol-5-yl]-1-methyl-1H-imidazole-4-sulfonamide] | 100 to 1000 nM
11 | Cc1nc(S(=O)(=O)Nc2cc3c(cc2Oc2cccc(OCC4CC4)c2)n(C)c(=O)n3C)cn1C [Example 58, N-(6-(3-(cyclopropylmethoxy)phenoxy)-1,3-dimethyl-2-oxo-2,3-dihydro-1H-benzo[d]imidazol-5-yl)-1,2-dimethyl-1H-imidazole-4-sulfonamide] | 10 to 100 nM
12 | CCCOc1cc(OCCCOC)cc(Oc2cc3c(cc2NS(=O)(=O)c2ccccc2)n(C)c(=O)n3C)c1 [Example 163, N-(6-(3-(3-methoxypropoxy)-5-propoxyphenoxy)-1,3-dimethyl-2-oxo-2,3-dihydro-1H-benzo[d]imidazol-5-yl)benzenesulfonamide] | 100 to 1000 nM
13 | CCCOc1cc(OCCCOC)cc(Oc2cc3c(cc2NS(=O)(=O)c2cc(OC)cc(OC)c2)n(C)c(=O)n3C)c1 [Example 166, 3,5-dimethoxy-N-(6-(3-(3-methoxypropoxy)-5-propoxyphenoxy)-1,3-dimethyl-2-oxo-2,3-dihydro-1H-benzo[d]imidazol-5-yl)benzenesulfonamide] | 100 to 1000 nM
14 | CCCOc1cc(OCCCCCCN)cc(Oc2cc3c(cc2NS(=O)(=O)c2cccc(C#N)c2)n(C)c(=O)n3C)c1 [Example 190, N-(6-(3-((6-aminohexyl)oxy)-5-propoxyphenoxy)-1,3-dimethyl-2-oxo-2,3-dihydro-1H-benzo[d]imidazol-5-yl)-3-cyanobenzenesulfonamide] | 10 to 100 nM
15 | Cn1cnc(S(=O)(=O)Nc2cc3c(cc2Oc2cccc(OCCCCC(=O)O)c2)n(C)c(=O)n3C)c1 [Example 228] | 100 to 1000 nM
16 | CCCOc1cc(OCCCOC)cc(Oc2cc3c(cc2NS(=O)(=O)c2ccccn2)n(C)c(=O)n3C)c1 [Example 158, N-(6-(3-(3-methoxypropoxy)-5-propoxyphenoxy)-1,3-dimethyl-2-oxo-2,3-dihydro-1H-benzo[d]imidazol-5-yl)pyridine-2-sulfonamide] | 10 to 100 nM
17 | CCCOc1cc(OCCCCCCO)cc(Oc2cc3c(cc2NS(=O)(=O)c2cn(C)cn2)n(C)c(=O)n3C)c1 [Example 181, N-(6-(3-((6-hydroxyhexyl)oxy)-5-propoxyphenoxy)-1,3-dimethyl-2-oxo-2,3-dihydro-1H-benzo[d]imidazol-5-yl)-1-methyl-1H-imidazole-4-sulfonamide] | 10 to 100 nM
18 | CCCOc1cccc(Oc2cc3c(cc2NS(=O)(=O)c2cccc(OC/C=C/CCCN)c2)n(C)c(=O)n3C)c1 [Example 243, (E)-3-((6-aminohex-2-en-1-yl)oxy)-N-(1,3-dimethyl-2-oxo-6-(3-propoxyphenoxy)-2,3-dihydro-1H-benzo[d]imidazol-5-yl)benzenesulfonamide 2,2,2-trifluoroacetate] | 10 to 100 nM
19 | Cn1ccnc1S(=O)(=O)Nc1cc2c(cc1Oc1cccc(OCc3ccccc3)c1)n(C)c(=O)n2C [Example 80, N-(6-(3-(benzyloxy)phenoxy)-1,3-dimethyl-2-oxo-2,3-dihydro-1H-benzo[d]imidazol-5-yl)-1-methyl-1H-imidazole-2-sulfonamide] | > 1000 nM
20 | COCCCOc1cc(OCCCOC)cc(Oc2cc3c(cc2NS(=O)(=O)c2cn(C)c(C)n2)n(C)c(=O)n3C)c1 [Example 123, N-(6-(3,5-bis(3-methoxypropoxy)phenoxy)-1,3-dimethyl-2-oxo-2,3-dihydro-1H-benzo[d]imidazol-5-yl)-1,2-dimethyl-1H-imidazole-4-sulfonamide] | 10 to 100 nM
21 | COc1ccccc1S(=O)(=O)Nc1cc2c(cc1Oc1cccc(OCc3ccccc3)c1)n(C)c(=O)n2C [Example 52, N-(6-(3-(benzyloxy)phenoxy)-1,3-dimethyl-2-oxo-2,3-dihydro-1H-benzo[d]imidazol-5-yl)-2-methoxybenzenesulfonamide] | 100 to 1000 nM
22 | CCCOc1cc(OCCCC#N)cc(Oc2cc3c(cc2NS(=O)(=O)c2cn(C)c(C)n2)n(C)c(=O)n3C)c1 [Example 124, N-(6-(3-(3-cyanopropoxy)-5-propoxyphenoxy)-1,3-dimethyl-2-oxo-2,3-dihydro-1H-benzo[d]imidazol-5-yl)-1,2-dimethyl-1H-imidazole-4-sulfonamide] | 10 to 100 nM
23 | CCCOc1cc(Oc2cc3c(cc2NS(=O)(=O)c2cn(C)cn2)n(C)c(=O)n3C)ccc1Cl [Example 112, N-(6-(4-chloro-3-propoxyphenoxy)-1,3-dimethyl-2-oxo-2,3-dihydro-1H-benzo[d]imidazol-5-yl)-1-methyl-1H-imidazole-4-sulfonamide] | 100 to 1000 nM
24 | CCCOc1cc(OCCCOC)cc(Oc2cc3c(cc2NS(=O)(=O)c2ccc(OC)c(NC(C)=O)c2)n(C)c(=O)n3C)c1 [Example 159, N-(2-methoxy-5-(N-(6-(3-(3-methoxypropoxy)-5-propoxyphenoxy)-1,3-dimethyl-2-oxo-2,3-dihydro-1H-benzo[d]imidazol-5-yl)sulfamoyl)phenyl)acetamide] | 10 to 100 nM
25 | CCCOc1cc(OCCCOC)cc(Oc2cc3c(cc2NS(=O)(=O)c2cn(C)c(Cl)n2)n(C)c(=O)n3C)c1 [Example 149, 2-chloro-N-(6-(3-(3-methoxypropoxy)-5-propoxyphenoxy)-1,3-dimethyl-2-oxo-2,3-dihydro-1H-benzo[d]imidazol-5-yl)-1-methyl-1H-imidazole-4-sulfonamide] | 10 to 100 nM
26 | CC(C)COc1cccc(Oc2cc3c(cc2NS(=O)(=O)c2cnn(C)c2)n(C)c(=O)n3C)c1 [Example 60, N-(6-(3-isobutoxyphenoxy)-1,3-dimethyl-2-oxo-2,3-dihydro-1H-benzo[d]imidazol-5-yl)-1-methyl-1H-pyrazole-4-sulfonamide] | 10 to 100 nM
27 | COc1cc(OCC(C)C)cc(Oc2cc3c(cc2NS(=O)(=O)C2CC2)n(C)c(=O)n3C)c1 [Example 69, N-(6-(3-isobutoxy-5-methoxyphenoxy)-1,3-dimethyl-2-oxo-2,3-dihydro-1H-benzo[d]imidazol-5-yl)cyclopropanesulfonamide] | 10 to 100 nM
28 | CCCOc1cc(OCCCCN2CCC(O)C2)cc(Oc2cc3c(cc2NS(=O)(=O)c2ccc(OC)c(OC)c2)n(C)c(=O)n3C)c1 (centres unmarked) [Example 247, N-(6-{3-[4-(3-hydroxypyrrolidin-1-yl)butoxy]-5-propoxyphenoxy}-1,3-dimethyl-2-oxo-2,3-dihydro-1H-1,3-benzodiazol-5-yl)-3,4-dimethoxybenzene-1-sulfonamide] | 10 to 100 nM
29 | CCCOc1cc(OCCCCN)cc(Oc2cc3c(cc2NS(=O)(=O)c2cn(C)c(C)n2)n(C)c(=O)n3C)c1 [Example 214] | 10 to 100 nM

— patent publication US20160060260A1, “BROMODOMAIN INHIBITORS FOR TREATING DISEASE” (Board of Regents, The University of Texas System, priority 2014, published 2016)
